Reference: EP0489933A1, “BILE ALCOHOL AND DRUG CONTAINING THE SAME AS ACTIVE INGREDIENT” (TSUMURA CO., LTD., priority 1990, dated 1992)

Experiments:
male rats of SD line = experiment: High cholesterol feed: blood viscosity, serum total cholesterol, triglyceride, GOT; type: in vivo; settings: 100 mg/kg/day, p.o., 4 days
Procedure: In this experiment, 5-week-old male rats of SD line (5 individuals per one group) were used after rearing them for 1 week using normal feed, and each compound of the present invention (100 mg/kg) was administered orally once a day for 4 days. Simultaneously with the commencement of the administration, the normal feed was replaced by a high cholesterol feed. After completion of the administration, they were subjected to fasting treatment for 24 hours. Thereafter, each rat was subjected to ventrotomy under anesthesia with Nembutal® (Dainabot Co., Ltd.; 50 mg/kg, i.p.) to collect blood from abdominal aorta, and the collected blood sample was checked for its blood viscosity using a viscometer (Biolyzer, Tokyo Keiki Co., Ltd.). At the same time, total cholesterol (Wako Pure Chemical Industries, Ltd.; Cholesterol E-test wako), triglyceride (Wako Pure Chemical Industries, Ltd.; Triglyceride G-test wako) and GOT (Wako Pure Chemical Industries, Ltd.; GOT-UV test-wako) in serum samples were measured.

[1] = system: platelet rich plasma (PRP); experiment: Platelet aggregation in platelet rich plasma after oral administration; type: in vivo, male rat; settings: 30 mg/kg, p.o., blood 90 minutes after administration
Procedure: Each drug to be tested was orally administered to each male rat which has been subjected to fasting treatment for 18 to 24 hours. After 90 minutes of the administration, median incision ventrotomy was carried out under ether anesthesia to collect 9 volumes of blood using a syringe filled with 1 volume of 3.8% sodium citrate solution (3.8% sodium citrate solution:blood = 1:9). After thorough mixing, the thus prepared mixture was centrifuged at 800 rpm for 10 minutes at room temperature to collect the resulting supernatant fluid as platelet rich plasma (PRP). The residual portion was centrifuged at 3,000 rpm for 15 minutes at room temperature to collect the resulting supernatant fluid as platelet poor plasma (PPP). The PRP was diluted with the PPP to adjust the number of platelets to 3×10⁵ ± 2×10⁴ cells/µl. A 450 µl portion of the thus diluted PRP was incubated at 37°C for 3 minutes and then mixed with 50 µl of 1×10⁻⁵ M of ADP or 1×10⁻⁵ g/ml of collagen. Thereafter, platelet aggregation test of the mixture was carried out using an aggregometer by measuring transmittance at 940 nm.

male SD rats = experiment: Thrombus formation in abdominal vena cava; type: in vivo; settings: 30 mg/kg, p.o.; dry weight of thrombus
Procedure: Each of male SD rats of 130 to 210 g in body weight was anesthetized with Nembutal® (50 mg/kg, i.p.) and subjected to median incision ventrotomy to release about a 2 cm portion of abdominal vena cava below the renal vein. Blood flow of the thus released vena cava was temporarily stopped for 5 minutes with 8 hemostatic clips. After recirculating blood for 5 minutes by removing the hemostatic clips, […] was ligated at a position just below the renal vein and the median-incised part was sutured. Two hours after the ligature, the thus treated rat was again subjected to ventrotomy to excise abdominal vena cava. The thus excised blood vessel was cut open on a filter paper which had been moistened with physiological saline, in order to take out thrombus. The thrombus thus obtained was washed with physiological saline to remove adhered blood and the like substances and then dried at 80°C for 12 hours or longer to measure its dry weight. In this instance, each drug to be tested was orally administered 90 minutes before the clipping to examine its effect by single administration on the formation of thrombus. Separately from this, each test drug was administered to 6-week-old male SD rat continuously for 7 days, thrombus was prepared in the eighth day in the same manner as described above and dry weight of the thrombus was measured, in order to examine effect of the continuous 7 day administration on the thrombus formation.

male mice of ddY line [2] = experiment: Blood oxygen and carbon dioxide partial pressure; type: in vivo; settings: 20 mg/kg, i.p.; blood from abdominal aorta 60 minutes after administration
Procedure: In this experiment, 4-week-old male mice of ddY line (10 individuals per one group) were used after fasting treatment for 24 hours.
After 60 minutes of the administration of each compound of the present invention, each mouse was subjected to ventrotomy under anesthesia with Nembutal® (Dainabot Co., Ltd.; 50 mg/kg, i.p.) to collect blood from abdominal aorta, and the collected blood sample was immediately checked for its oxygen partial pressure (PO₂) and carbon dioxide partial pressure (PCO₂) using a blood-aerotonometer (Model 170, Ciba-Corning).

male mice of ddY line [3] = type: in vivo; settings: 50 mg/kg, i.p., 60 minutes before KCN (3.0 mg/kg) tail intravenous injection; for Survival Time ±S.E.: time to respiratory arrest
male rats of SHR line = experiment: Blood pressure in SHR rats; type: in vivo; settings: 10 mg/kg, p.o., 2 weeks
Procedure: In this experiment, 12-week-old male rats of SHR line (5 to 6 individuals per one group) were used after rearing them for 1 week with normal feed. Oral administration of each test drug has been carried out for 2 weeks and then blood pressure (mmHg) was measured using a small animal hemomanometer (UR-1000).

red blood cells = experiment: Inhibition of thermal hemolysis of red blood cells; type: cell-based, donryu rats; settings: 53°C for 20 minutes; for inhibition at 10 µM / inhibition at 50 µM / inhibition at 100 µM / inhibition at 200 µM / inhibition at 500 µM: Rattus norvegicus, Erythrocyte, 20 min, read-out: Hemolysis Inhibition Ratio (%) against Control
Procedure: Blood was collected from donryu rats of 150 to 200 g in body weight and centrifuged at 1,500 rpm for 5 minutes to obtain red blood cells. The red blood cells thus collected were diluted with 0.15 M phosphate buffer (pH 7.4) to prepare a 5% red blood cell suspension. A 3.8 ml portion of the thus prepared suspension was mixed with 0.2 ml solution of each compound of the present invention which has been adjusted to each level of the concentrations as shown in the following table, and the resulting mixture was shaken thoroughly and incubated at 53°C for 20 minutes. Thereafter, the thus incubated mixture was cooled rapidly with tap water and centrifuged at 3,000 rpm for 15 minutes, and absorbance at 540 nm of the resulting supernatant fluid was measured using a spectrophotometer (Hitachi: Type 200-20). Inhibition rate (%) of red blood cell hemolysis at each concentration of the compound was calculated based on the absorbance, with the results shown in Table 8.

[4] = system: rats of diabetes mellitus; experiment: Blood sugar level in streptozotocin-induced diabetes mellitus; type: in vivo, male rats of Wistar line; settings: 50 mg/kg
Procedure: In this experiment, 8-week-old male rats of Wistar line (5 individuals per one group) were used after rearing them for 1 week with normal feed. Streptozotocin (40 mg/kg) was administered by tail intravenous injection to obtain rats of diabetes mellitus. Beginning after 1 week of the streptozotocin administration, oral administration of each test drug has been carried out for 1 week, followed by 24 hours of fasting. Thereafter, blood sample was collected from lower abdominal vena cava under anesthesia with Nembutal® (1 ml/kg, i.p.). Serum samples were prepared from the thus collected blood samples and checked for their blood sugar levels, with the results shown in Table 9.

[5] = i.o., administered for 1 week beginning 1 week after streptozotocin (40 mg/kg), serum

| SMILES | GOT ±S.E. (male rats of SD line) [IU/ℓ] | Total Cholesterol ±S.E. (male rats of SD line) [mg/dL] | Triglyceride ±S.E. (male rats of SD line) [mg/dL] | Platelet Aggregation Ratio ±S.E. ([1]; ADP (1×10⁻⁵ M)) [%] | Platelet Aggregation Ratio ±S.E. ([1]; Collagen (1×10⁻⁵ g/ml)) [%] | Antithrombotic Effect: Thrombus weight ±S.E. (male SD rats) [mg] | Carbon Dioxide Partial Pressure (male mice of ddY line [2]) [mmHg] | Oxygen Partial Pressure (male mice of ddY line [2]) [mmHg] | Lethality (%) (male mice of ddY line [3]) | Survival Time ±S.E. (male mice of ddY line [3]) [s] | Blood Pressure ±S.E. Average (male rats of SHR line) [mmHg] | Blood Pressure ±S.E. Maximum (male rats of SHR line) [mmHg] | inhibition at 10 µM (red blood cells; 0.01 mM) [%] | inhibition at 50 µM (red blood cells; 0.05 mM) [%] | inhibition at 100 µM (red blood cells; 0.1 mM) [%] | inhibition at 200 µM (red blood cells; 0.2 mM) [%] | inhibition at 500 µM (red blood cells; 0.5 mM) [%] | Blood Sugar Level ± S.E. [4, 5] [mg/dL] | further results |
| --- | --- | --- | --- | --- | --- | --- | --- | --- | --- | --- | --- | --- | --- | --- | --- | --- | --- | --- | --- |
| C[C@H](CC[C@@H](O)C(CO)CO)[C@H]1CC[C@H]2[C@@H]3[C@H](O)C[C@@H]4C[C@H](O)CC[C@]4(C)[C@H]3C[C@H](O)[C@]12C [Illustrative Example 1, (24R)-(+)-3α,7α,12α,24,26,27-hexahydroxy-5β-cholestane] | 128 ± 10 | 390 ± 61 | 90 ± 16 | 50.3 ± 1.32 | 43.8 ± 3.99 | 15.1 ± 1.98 | 41.3 | 98.6 | 70 | 159 ± 10.72 | 139 ± 8.5 | 205 ± 2.1 | 23 | 20 | 42 | 53 | 80 | 177 ± 5.5 | – |
| C[C@H](CC[C@H]1OC[C@H]1CO)[C@H]1CC[C@H]2[C@@H]3[C@H](O)C[C@@H]4C[C@H](O)CC[C@]4(C)[C@H]3C[C@H](O)[C@]12C [Example 4, (24R)-(25R)-(+)-24,26-epoxy-5β-cholestane-3α,7α,12α,27-tetrol] | 138 ± 9 | 428 ± 49 | 92 ± 45 | 46.1 ± 2.65 | 47.7 ± 3.88 | 11.2 ± 3.81 | 39.1 | 85.3 | 80 | 98.1 ± 13.1 | 153 ± 2.8 | 205 ± 7.8 | 27 | 21 | 31 | 44 | 48 | 181 ± 8.9 | – |
| CC(C)C(O)CC[C@@H](C)[C@H]1CC[C@H]2[C@@H]3[C@H](O)C[C@@H]4C[C@H](O)CC[C@]4(C)[C@H]3C[C@H](O)[C@]12C (stereo partly drawn) [Illustrative Example 5, 3α,7α,12α,24-tetrahydroxy-5β-cholestane] | 131 ± 21 | 453 ± 49 | 110 ± 29 | 44.8 ± 3.62 | 49.9 ± 4.85 | 13.8 ± 3.77 | 41.2 | 88.1 | 80 | 101.1 ± 7.8 | 151 ± 4.6 | 185 ± 7.7 | 25 | 21 | 33 | 51 | 58 | 170 ± 7.2 | – |
| CC(CCC1OCC1CO)C1CCC2C3C(O)CC4CC(O)CCC4(C)C3CC(O)C12C [Example 3, (24R)-(25S)-(+)-24,26-epoxy-5β-cholestane-3α,7α,12α,27-tetrol] | 140 ± 10 | 445 ± 65 | 90 ± 39 | 42.5 ± 3.81 | 42.5 ± 1.85 | 13.5 ± 1.22 | 45.5 | 86.1 | 80 | 107.3 ± 8.6 | 150 ± 3.7 | 200 ± 7.7 | – | – | – | – | – | – | Hemolysis Inhibition Ratio (%) against Control (red blood cells; 0.01 mM): 33%; Hemolysis Inhibition Ratio (%) against Control (red blood cells; 0.05 mM): 30%; Hemolysis Inhibition Ratio (%) against Control (red blood cells; 0.1 mM): 24%; Hemolysis Inhibition Ratio (%) against Control (red blood cells; 0.2 mM): 51%; Hemolysis Inhibition Ratio (%) against Control (red blood cells; 0.5 mM): 70%; Blood Sugar Level ± S.E. ([4]; 168 h): 143 ± 6.9 mg/dL |
| C[C@H](CCCC(CO)CO)[C@H]1CC[C@H]2[C@@H]3[C@H](O)C[C@@H]4C[C@H](O)CC[C@]4(C)[C@H]3C[C@H](O)[C@]12C [Example 6, 3α,7α,12α,26,27-pentahydroxy-5β-cholestane] | 143 ± 8 | 391 ± 70 | 99 ± 41 | 50.1 ± 2.33 | 42.3 ± 3.83 | 13.5 ± 2.11 | 40.3 | 83.5 | 80 | 98.7 ± 8.81 | 131 ± 3.7 | 178 ± 3.3 | 33 | 25 | 20 | 41 | 62 | 138 ± 6.8 | – |
